Data reported in patent US12583884B2, “3beta-(benzyloxy)-17alpha-methyl-pregn-5-en-20-one for use in the treatment of cognitive disorders” (AELIS FARMA, priority 2018, dated 2026).
One block for each molecule: values may come before it.

Experiments:
Cannabinoid CB1 = biological target: T1, Cannabinoid CB1 (Homo sapiens, UniProt P21554); assay: CEREP binding profile: CB1
T1 construct: CEREP
Description: (§1) The CEREP High-throughput profile consists of a broad collection of 80 transmembrane and soluble receptors, ion channels and G-Protein coupled receptors.

Chemokines CCR1 = biological target: T2, Chemokines CCR1 (Homo sapiens, UniProt P32246); assay: CEREP binding profile: CCR1
T2 construct: CEREP
Description: as §1

Dopamine D5 = biological target: T3, Dopamine D5 (Homo sapiens, UniProt P21918); assay: CEREP binding profile: D5
T3 construct: CEREP
Description: as §1

Histamine H2 = Histamine H2 (Homo sapiens, UniProt P25021); assay: CEREP binding profile: H2
Description: as §1

[1] = biological target: T4, Vasoactive intestinal peptide VPAC1 (VIP1) (Homo sapiens, UniProt P32241); assay: CEREP binding profile: VPAC1
T4 construct: CEREP (contract panel)
Description: as §1

Vasopressin V1a = biological target: T5, Vasopressin V1a (Homo sapiens, UniProt P37288); assay: CEREP binding profile: V1a
T5 construct: CEREP (contract panel)
Description: as §1

Serotonin 5-HT2C = biological target: T6, Serotonin 5-HT2C (Homo sapiens, UniProt P28335); assay: CEREP binding profile: 5-HT2C
T6 construct: CEREP (contract panel)
Description: as §1

Serotonin 5-HT5a = biological target: T7, Serotonin 5-HT5a (Homo sapiens, UniProt P47898); assay: CEREP binding profile: 5-HT5a
T7 construct: CEREP (contract panel)
Description: as §1

GABA Cl- channel = assay: CEREP binding profile: Cl- channel; conditions: 10 μM
Description: as §1

Glutamate PCP = assay: CEREP binding profile: PCP; conditions: 10 μM
Description: as §1

[2] = biological target: T8, Steroid nuclear receptors AR (Homo sapiens, UniProt P10275); assay: Binding: AR
T8 construct: CEREP
Description: as §1

[3] = biological target: T9, wild-type human CB1 receptor (Homo sapiens, UniProt P21554); assay: THC-induced inhibition of cellular respiration in HEK-293-hCB1-WT; format: cell-based; conditions: THC 1 μM
T9 construct: expressed in transfected cells; host or cells: HEK-293 (transient)
Experimental: In a first study (FIG. 5A), HEK-293 cells were transiently transfected with the wild-type hCB1-expressing plasmid (HEK-293-hCB1-WT). […] After 15 min of incubation, THC (0; 1 μM, dissolved in EtOH, 0.0034%) was added in the culture dishes for 30 minutes.
Cellular respiration was measured in a calibrated oxygraph equipped with a Clark electrode. Oxygen consumption (OC) rate was used to measure cellular respiration.

human CB1 receptor = human CB1 receptor (Homo sapiens, UniProt P21554); assay: THC-induced decrease of cAMP in CHO-hCB1 cells; format: cell-based; conditions: 1 nM, 10 nM, 100 nM and 1 μM
Experimental: CHO-CB1-C2 cells were treated by concomitantly adding THC and the test compound for 45 minutes. Forskolin (2.5 μM) was also simultaneously added in all the conditions tested to sustain cAMP basal level.
At the end of the treatment, cells were lysed to proceed with the cAMP quantification. All measures were performed in triplicates in one experiment. The quantitative determination of cAMP was performed through a competitive fluorescence immunoassay. Data were expressed as % of Delta Fluorescence (Delta F) that was calculated as follows: Delta F %=(Sample Fluorescence−Negative control Fluorescence)/Negative control Fluorescence.

Ts65Dn mice = assay: Working memory (radial maze), Down syndrome model; format: in vivo, mouse; conditions: 0.06 μg/ml in drinking water
Experimental: The working memory task was performed using 8-arm radial mazes described in Example 3a. Food restriction and habituation procedure were performed as described in Example 3a. The working memory procedure began 24 h after the last habituation session. Each mouse was submitted to 15 daily learning sessions (5 blocks of 3 days) made of 23 trials each. Six arms out of eight were used during the working memory test (3 pairs (A, B or C) of adjacent arms).
At the beginning of each daily session, the mouse was placed at the center of the maze with no access to the arms. The doors of the first pair of arms then opened giving access to both arms of the pair. Once the mouse had visited one of the arms and goes back to the central platform, the door closed, and the animal was confined in the central platform for 10 sec (inter-trial interval, ITI) before two doors opened again giving access to a pair of arms. Once the animal had visited one of the arms and returns to the central platform the doors close again for 10 sec before the next trial. Within each session, the mouse was submitted to repeated and successive presentations of the 3 pairs of arms one at a time. At the first presentation of each arm pair the food reward was present in both arms. […]

[4] = Anxiety-like behaviors in the elevated plus maze; format: in vivo, mouse
Description: The EPM apparatus was made of grey polyvinyl chloride and consisted of four elevated arms. The arms (height, 60 cm; length, 37 cm; width, 6 cm; each) were arranged in a cross-like disposition, with two opposite arms being enclosed by walls and the two other arms being open. A video camera placed on the top of the maze and connected to a tracking system allowed the automatic scoring of the locomotion of the mice in the maze. The light intensity of the maze was set at 45 lux in the open arms. One mouse was placed in the center of the EPM and was then free to explore the entire maze for 5 minutes. The time spent and the number of entries into the open arms and closed arms were measured. A decrease in the percentages of visits and/or of the time spent in open arms reflects an increase in anxiety levels.
Rimonabant was dissolved in a vehicle containing DMSO, (2%), Tween80 (2%) in injectable NaCl 0.9%. Within the same study, the effect of intraperitoneal injection of rimonabant at 10 mg/kg or of vehicle alone (10 ml/kg) was studied in the EPM in 2-month-old male C57B1/6J mice (n=10 per group). The EPM test was performed 30 minutes after rimonabant injection.

[5] = Spontaneous behaviors in the home cage (video analysis); format: in vivo, mouse; conditions: 30 mg/kg per os; 24 hours video analysis
[6] = 7-day oral safety study in rats; format: in vivo, Sprague-Dawley rats
Experimental: Morbidity/mortality checks were performed twice daily. Clinical observations were performed before the first dosing and then daily. Functional and neurobehavioral tests were performed before the first dosing and on the last day of treatment. Body weight was recorded on Day-1, Day-3, Day-5 and Day-7. Food consumption was measured weekly.
Blood samples for haematology parameters and clinical chemistry analysis were collected on the day of necropsy (Day-8).
Animals were sacrificed on Day-8. Selected organs were weighed, fixed, preserved at necropsy and examined histopathologically.

T9 sequence (P21554 whole entry): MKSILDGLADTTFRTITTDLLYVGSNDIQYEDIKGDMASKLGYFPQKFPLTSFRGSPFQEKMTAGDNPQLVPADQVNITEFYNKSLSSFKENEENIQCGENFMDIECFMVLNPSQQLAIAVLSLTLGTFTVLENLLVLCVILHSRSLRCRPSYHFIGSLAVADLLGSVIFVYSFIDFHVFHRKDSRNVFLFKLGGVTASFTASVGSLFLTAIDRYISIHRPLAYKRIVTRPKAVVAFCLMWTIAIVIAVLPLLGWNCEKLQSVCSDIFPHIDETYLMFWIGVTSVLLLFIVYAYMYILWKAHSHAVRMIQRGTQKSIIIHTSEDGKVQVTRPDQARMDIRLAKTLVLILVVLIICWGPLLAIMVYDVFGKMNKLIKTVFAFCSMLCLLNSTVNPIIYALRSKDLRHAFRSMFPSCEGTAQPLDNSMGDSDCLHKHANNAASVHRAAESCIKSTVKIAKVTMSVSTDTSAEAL
T2 sequence (P32246 whole entry): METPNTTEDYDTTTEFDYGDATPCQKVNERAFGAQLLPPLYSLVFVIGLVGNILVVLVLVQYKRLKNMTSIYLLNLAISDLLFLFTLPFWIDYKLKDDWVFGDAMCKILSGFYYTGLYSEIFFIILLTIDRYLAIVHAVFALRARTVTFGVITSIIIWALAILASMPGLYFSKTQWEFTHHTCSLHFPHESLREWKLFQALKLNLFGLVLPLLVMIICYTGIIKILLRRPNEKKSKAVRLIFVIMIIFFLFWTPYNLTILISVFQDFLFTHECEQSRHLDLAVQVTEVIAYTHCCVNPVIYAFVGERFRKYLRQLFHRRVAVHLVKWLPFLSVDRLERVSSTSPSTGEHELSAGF
T6 sequence (P28335 33-458): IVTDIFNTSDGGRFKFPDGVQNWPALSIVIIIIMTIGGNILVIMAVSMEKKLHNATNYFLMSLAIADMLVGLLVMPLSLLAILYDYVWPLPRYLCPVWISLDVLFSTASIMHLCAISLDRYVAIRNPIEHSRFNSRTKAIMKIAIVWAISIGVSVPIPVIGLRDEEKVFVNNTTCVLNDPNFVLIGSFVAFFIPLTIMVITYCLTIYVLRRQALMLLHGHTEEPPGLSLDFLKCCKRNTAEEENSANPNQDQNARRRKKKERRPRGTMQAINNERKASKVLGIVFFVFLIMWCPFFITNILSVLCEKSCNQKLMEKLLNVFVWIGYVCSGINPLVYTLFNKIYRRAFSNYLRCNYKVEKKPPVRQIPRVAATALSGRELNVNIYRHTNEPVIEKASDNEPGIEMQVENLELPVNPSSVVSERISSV
Sequence of Histamine H2 (P25021 whole entry): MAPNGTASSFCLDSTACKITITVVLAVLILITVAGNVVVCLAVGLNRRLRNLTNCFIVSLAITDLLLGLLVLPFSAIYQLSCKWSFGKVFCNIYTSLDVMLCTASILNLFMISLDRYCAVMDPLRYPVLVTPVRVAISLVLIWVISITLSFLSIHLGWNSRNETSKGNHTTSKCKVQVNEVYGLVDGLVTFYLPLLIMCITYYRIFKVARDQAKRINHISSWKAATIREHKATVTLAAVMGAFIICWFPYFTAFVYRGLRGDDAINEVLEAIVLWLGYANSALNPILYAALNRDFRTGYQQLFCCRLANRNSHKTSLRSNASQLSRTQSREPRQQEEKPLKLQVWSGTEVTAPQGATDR
T5 sequence (P37288 whole entry): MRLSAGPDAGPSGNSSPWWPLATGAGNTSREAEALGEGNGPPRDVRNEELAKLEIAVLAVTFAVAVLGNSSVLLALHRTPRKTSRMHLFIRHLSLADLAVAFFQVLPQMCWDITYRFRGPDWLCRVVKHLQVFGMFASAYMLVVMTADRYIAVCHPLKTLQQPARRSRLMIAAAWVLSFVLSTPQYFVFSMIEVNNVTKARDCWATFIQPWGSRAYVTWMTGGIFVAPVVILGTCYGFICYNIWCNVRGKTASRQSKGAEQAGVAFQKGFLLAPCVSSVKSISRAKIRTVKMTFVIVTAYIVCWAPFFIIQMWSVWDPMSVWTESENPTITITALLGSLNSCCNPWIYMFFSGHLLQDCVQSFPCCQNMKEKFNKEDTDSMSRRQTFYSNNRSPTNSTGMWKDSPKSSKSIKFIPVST
T3 sequence (P21918 whole entry): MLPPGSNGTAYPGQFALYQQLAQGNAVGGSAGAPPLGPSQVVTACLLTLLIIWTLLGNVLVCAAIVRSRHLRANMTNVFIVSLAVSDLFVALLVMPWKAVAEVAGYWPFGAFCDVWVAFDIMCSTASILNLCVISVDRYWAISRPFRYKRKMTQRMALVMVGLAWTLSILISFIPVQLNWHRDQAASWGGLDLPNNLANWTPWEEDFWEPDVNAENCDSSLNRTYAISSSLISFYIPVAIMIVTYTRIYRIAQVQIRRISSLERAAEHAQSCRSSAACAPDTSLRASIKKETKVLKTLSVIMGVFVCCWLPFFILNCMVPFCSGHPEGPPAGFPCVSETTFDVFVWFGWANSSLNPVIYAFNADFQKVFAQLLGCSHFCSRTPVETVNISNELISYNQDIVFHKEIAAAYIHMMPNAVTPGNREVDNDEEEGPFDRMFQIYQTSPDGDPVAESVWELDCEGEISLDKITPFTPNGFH
T1 sequence (P21554 whole entry): as the sequence (P21554 whole entry) above
T7 sequence (P47898 whole entry): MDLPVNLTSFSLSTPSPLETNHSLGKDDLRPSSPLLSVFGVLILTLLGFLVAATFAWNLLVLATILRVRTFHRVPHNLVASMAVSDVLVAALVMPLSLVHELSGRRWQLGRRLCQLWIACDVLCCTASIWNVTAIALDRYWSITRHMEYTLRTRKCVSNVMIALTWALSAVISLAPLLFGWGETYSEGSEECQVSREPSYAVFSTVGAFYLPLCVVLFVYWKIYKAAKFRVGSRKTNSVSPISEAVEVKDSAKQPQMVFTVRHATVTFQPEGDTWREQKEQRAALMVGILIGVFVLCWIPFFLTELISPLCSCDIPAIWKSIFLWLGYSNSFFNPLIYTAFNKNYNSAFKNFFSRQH
T4 sequence (P32241 31-457): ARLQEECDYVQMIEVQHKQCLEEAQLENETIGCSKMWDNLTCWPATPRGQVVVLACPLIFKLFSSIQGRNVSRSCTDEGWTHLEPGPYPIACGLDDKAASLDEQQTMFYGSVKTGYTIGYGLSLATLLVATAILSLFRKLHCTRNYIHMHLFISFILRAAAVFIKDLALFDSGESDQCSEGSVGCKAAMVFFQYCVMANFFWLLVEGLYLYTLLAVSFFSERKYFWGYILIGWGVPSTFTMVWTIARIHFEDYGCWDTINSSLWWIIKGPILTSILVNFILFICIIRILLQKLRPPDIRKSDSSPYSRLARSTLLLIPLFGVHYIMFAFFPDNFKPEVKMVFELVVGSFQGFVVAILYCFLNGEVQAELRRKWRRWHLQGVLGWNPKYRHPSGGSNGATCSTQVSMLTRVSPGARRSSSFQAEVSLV
Sequence of human CB1 receptor (P21554 whole entry): as the sequence (P21554 whole entry) above
T8 sequence (P10275 whole entry): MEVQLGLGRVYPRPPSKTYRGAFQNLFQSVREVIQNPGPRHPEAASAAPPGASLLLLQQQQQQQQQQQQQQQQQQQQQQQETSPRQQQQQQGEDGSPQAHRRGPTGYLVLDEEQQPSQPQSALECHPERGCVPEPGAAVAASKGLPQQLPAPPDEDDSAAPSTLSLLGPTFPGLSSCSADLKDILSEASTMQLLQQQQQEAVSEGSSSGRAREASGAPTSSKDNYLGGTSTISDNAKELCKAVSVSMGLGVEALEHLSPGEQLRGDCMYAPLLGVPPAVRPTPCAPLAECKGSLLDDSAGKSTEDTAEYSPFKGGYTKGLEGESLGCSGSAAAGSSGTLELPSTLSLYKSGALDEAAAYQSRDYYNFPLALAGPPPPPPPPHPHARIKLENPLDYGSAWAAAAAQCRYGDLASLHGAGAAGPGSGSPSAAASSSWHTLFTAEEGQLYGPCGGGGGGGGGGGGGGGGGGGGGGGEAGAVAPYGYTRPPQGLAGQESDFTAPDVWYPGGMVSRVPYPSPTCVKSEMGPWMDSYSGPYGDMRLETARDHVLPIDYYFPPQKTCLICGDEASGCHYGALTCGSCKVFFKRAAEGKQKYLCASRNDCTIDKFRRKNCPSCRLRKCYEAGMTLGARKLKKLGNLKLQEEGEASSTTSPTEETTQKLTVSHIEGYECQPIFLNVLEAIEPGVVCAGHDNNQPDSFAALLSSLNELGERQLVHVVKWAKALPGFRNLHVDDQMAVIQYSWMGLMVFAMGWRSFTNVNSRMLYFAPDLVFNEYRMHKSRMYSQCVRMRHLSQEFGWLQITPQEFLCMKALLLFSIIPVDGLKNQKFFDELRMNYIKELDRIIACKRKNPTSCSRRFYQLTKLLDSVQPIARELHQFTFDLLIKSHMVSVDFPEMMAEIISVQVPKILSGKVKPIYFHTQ

SMILES: CC(=O)[C@@]1(C)CC[C@H]2[C@@H]3CC=C4C[C@@H](OCc5ccccc5)CC[C@]4(C)[C@H]3CC[C@@]21C [3Bn17MeP, 3β-benzyloxy, 17α-methyl-pregn-5-en-20-one]
% Inhibition (Cannabinoid CB1; 10 μM): 2% | inhibition at 10 µM (Chemokines CCR1): -13% | % Inhibition (Dopamine D5; 10 μM): −6% | inhibition at 10 µM (Histamine H2): 12% | inhibition at 10 µM [1]: -17% | inhibition at 10 µM (Vasopressin V1a): 0% | % Inhibition (Serotonin 5-HT2C; 10 μM): 10% | % Inhibition (Serotonin 5-HT5a; 10 μM): 2% | Inhibition % (GABA Cl- channel): 1% | Inhibition % (Glutamate PCP): 5% | inhibition at 10 µM [2]: 16% | ID100 ([3]; HEK-293-hCB1): 50 nM | % Inhibition ([3]; HEK-293-hCB1, maximal inhibition of THC effect): 100% | Concentration with significant block of THC-induced inhibition of cellular respiration ([3]; tested 1, 2.5, 5, 50 and 100 nM, Tukey's test): ≥ 2.5 nM | Effect on inhibition of cAMP induced by THC (human CB1 receptor): does not modify | Correct responses (working memory) (Ts65Dn mice): increased correct responses in Ts65Dn as compared to vehicle mice that reached the level of WT | Percentage of time spent and of visits in the open arms ([4]; acute 30 mg/kg per os, 3 hours after administration): had no effect | Effect: increase in anxiety-like behaviors (acute administration) ([4]; male mice, highest dose tested 30 mg/kg): No | Effects on spontaneous behaviors per se [5]: no detectable effects | Histopathological changes ([6]; 20 mg/kg per os, 7 days): not associated with any histopathological changes | Total protein level ([6]; 20 mg/kg per os, 7 days): tendency to lower total protein level | Triglyceride level ([6]; 20 mg/kg per os, 7 days): higher triglyceride level | Triglyceride level ([6]; 20 mg/kg per os, 7 days, females): tendency to a lower triglyceride level | Red blood cell counts ([6]; 20 mg/kg per os, 7 days, males): slight tendency to a lower red blood cell counts | White blood cell counts ([6]; 20 mg/kg per os, 7 days, males and females): tendency to a lower white blood cell counts | Signs of toxicity ([6]; 20 mg/kg/day per os, 7 consecutive days): did not induce any sign of toxicity | MTD at 7 days ([6]; both sexes, Sprague-Dawley, rat, in vivo, oral, 20 mg/kg, repeated treatment at a single dose, 7 days per os, read-out: Maximum tolerated dose (MTD)): > 20 mg/kg/day

inhibition at 10 µM (Cannabinoid CB1): 10% | inhibition at 10 µM (Chemokines CCR1): -10% | inhibition at 10 µM (Dopamine D5): -4% | inhibition at 10 µM (Histamine H2): 9% | inhibition at 10 µM [1]: -10% | inhibition at 10 µM (Vasopressin V1a): 10% | inhibition at 10 µM (Serotonin 5-HT2C): -9% | inhibition at 10 µM (Serotonin 5-HT5a): 11% | Inhibition % (GABA Cl- channel): 29% | Inhibition % (Glutamate PCP): 5%
SMILES: CC(=O)[C@H]1CC[C@H]2[C@@H]3CC=C4C[C@@H](O)CC[C@]4(C)[C@H]3CC[C@]12C [pregnenolone, reference compound]
